The numbers were not newly measured in patent US8343565B2, “Method for producing grape extract with high ORAC value and grape extract so produced” (Ethical Naturals, Inc., priority 2008, dated 2013), which cites them from elsewhere.

The conditions of this series: exemplary ORAC scores listed in the background.

Take `O=C1O[C@H]([C@@H](O)CO)C(O)=C1O` [vitamin C]: the “ORAC scores for common vegetables and fruits” value is 5,000 μmol TE/g. For vitamin E, the “ORAC scores for common vegetables and fruits” value is given as 1,200 μmol TE/g.
